# Reference: PubChem BioAssay AID504882 (Broad Institute, 2011)
# Records with an inconclusive call do not appear. Activity calls are given as the source filed them. How the calls were made is not given here.
# System: EBV lymphoblastoid cells (LCL) viability, plate reader
# Experiment: LCL viability reduction – cell-based, plate reader, cherry-picks, set 2, cytotoxicity control, dose response (AID 504882)
row,Structure (SMILES),AC50
1,c1ccc(C(=NNc2nc3ccccc3s2)c2ccccn2)cc1,1.06 µM
2,C=CC(=O)OCCOCCOCCOCCOC(=O)C=C,16.9 µM
3,COc1cccc(/C=N/Nc2ncnc(Cl)c2N)c1O,3.73 µM
4,COc1cc(C=C2CCCC(=Cc3ccc(OCC4CO4)c(OC)c3)C2=O)ccc1OCC1CO1 (stereo not drawn),5.45 µM
5,O=C(/C=C1\NC2(CCCC2)Cc2ccccc21)C(=O)N/N=C/c1ccccc1O,18 µM
6,CCN(CC)c1ccc(/C=N/Nc2nc3ccccc3[nH]2)c(O)c1,2.74 µM
7,CCC(=O)NC(c1cc(Cl)c2cccnc2c1O)C1CC1 (stereo not drawn),6.08 µM
8,O=C(CCl)N(c1ccc(Cl)cc1)c1c[nH]c2ccccc12,3.35 µM
9,CC(=NNC(=S)Nc1cccc(Cl)c1)c1ccccn1,0.138 µM
10,Cc1nc2c(-c3ccc(Cl)cc3)c(C)[nH]n2c(=O)c1Cc1ccccc1,6.96 µM
11,Cc1ccc2[nH]c(C(=O)N/N=C/c3ccccc3O)c(C)c2c1,3.05 µM
12,COc1ccc(Cn2c(SCc3cc(C)ccc3C)nc3cc(OC)c(OC)cc3c2=N)cc1,6.5 µM
13,CCN(CC)C(=O)c1ccc(NC(=O)Nc2ccccc2F)cc1,2.63 µM
14,Cc1oc2c(c1C(=O)c1ccc(Cl)cc1)C(=O)C(=O)c1ccccc1-2,5.51 µM
15,CC(=NNC(=S)Nc1ccccc1)c1ccccn1,0.068 µM
16,O=C(NNC(=S)Nc1ccc(Cl)c(Cl)c1)c1ccccn1,1.5 µM
17,CN1C(=O)N(C)c2ccc(C=O)c3cccc1c23,5.99 µM
18,Cc1cc(Sc2nnc(/N=C/N(C)C)s2)c2ccccc2n1,9.16 µM
19,CCOC(=O)c1c(CSc2nc(C)cc(C)c2C#N)n(C)c2cc(Br)c(OC(C)=O)cc12,14.6 µM
20,Oc1c(N=NC(=S)Nc2ccccc2F)c2ccccc2n1Cc1cccc(Cl)c1,> 19.5 µM (inactive)
21,COc1ccc(-c2nc(-c3cccs3)no2)cc1,> 19.5 µM (inactive)

row,Structure (SMILES),AC50
1,O=C(N/N=C/c1c(O)ccc2ccccc12)c1ccc(Br)o1,6.22 µM
2,NC(=S)N/N=C/c1ncc(C(F)(F)F)cc1Cl,10.6 µM
3,COc1ccc(/C=N/Nc2cc(C)nc3ccc(OC)cc23)c(OC)c1,3.47 µM
4,C=C1C(=O)C2=CC1CCC(=O)C1(C)CCC(OC(C)=O)C(C)(C)C1CC2O (stereo not drawn),5.14 µM
5,CCN(CC)S(=O)(=O)c1ccc(N/N=C/c2ccc(O)cc2O)nc1,3.31 µM
6,Oc1ccc(C=NNC(=S)Nc2ccccc2)nc1,13 µM
7,CCCC(=O)NC(c1cccc([N+](=O)[O-])c1)c1ccc2cccnc2c1O (stereo not drawn),3.51 µM
8,O=C(N/N=C/c1ccc[nH]1)c1ccc(COc2cccc3cccnc23)cc1,4.93 µM
9,C[n+]1c2n(c3ccccc31)N=C(c1cc(C(C)(C)C)c(O)c(C(C)(C)C)c1)CS2,7.62 µM
10,CCCC(=O)NC(c1ccc(C(C)C)cc1)c1ccc2cccnc2c1O (stereo not drawn),1.74 µM
11,CCn1c2ccccc2c2cc(/C=N/NC(=O)c3ccccc3)ccc21,1.52 µM
12,CCOc1ccc(C(=O)Nc2cc(C)ccn2)cc1,9.64 µM
13,CCn1c2ccccc2c2cc(/C=N/n3c(C)nnc3C)ccc21,> 19.5 µM (inactive)
14,COc1cc(C(=O)Oc2ccccc2/C=N/NC(=O)c2ccc(C)c(Cl)c2)cc(OC)c1OC,12.7 µM
15,O=C(CF)N(O)c1ccc(C=Cc2ccccc2)cc1,4.21 µM
16,Cc1cccc(-n2ncc(Cl)c(Cl)c2=O)c1,1.59 µM
17,CCN(CC)c1ccc(/C=N/NC(=O)c2cnccn2)c(O)c1,3.23 µM
18,O=S(=O)(c1ccc2c(c1)C(=NO)c1cc(S(=O)(=O)N3CCCCC3)ccc1-2)N1CCCCC1,1.2 µM
19,CCN(CC)S(=O)(=O)c1cc([N+](=O)[O-])ccc1NNC(=O)Nc1ccc(Cl)c(Cl)c1,20.2 µM
20,Cc1ccc(C(=O)Nc2sc(Cc3ccc4c(c3)OCO4)c(C)c2C(N)=O)cc1,19.2 µM
21,COc1cccc(/C=N/Nc2nc3ccccc3[nH]2)c1O,4.42 µM

row,Structure (SMILES),AC50
1,COc1cccc(N=Nc2ccc(O)c3ncccc23)c1,2.18 µM
2,CNc1cccnc1C=NNC(N)=S,7.97 µM
3,Cc1cc(C)nc(SCc2ccc(C(=O)N/N=C/c3cccc(O)c3O)cc2)n1,10.9 µM
4,CC(=O)NC(c1cccs1)c1cc(F)c2cccnc2c1O (stereo not drawn),6.96 µM
5,Clc1ccc(SCc2cc(N3CCOCC3)nc(-c3ccccn3)n2)cc1,4.05 µM
6,Nc1ccn([C@@H]2O[C@H](CO)[C@@H](O)C2O)c(=O)n1 (stereo partly drawn),1.1 µM
7,CCCCC(=O)NC(c1ccc(OC)c(OC)c1)c1ccc2cccnc2c1O (stereo not drawn),5.63 µM
8,O=C(CCc1ccccc1)NC(c1cccs1)c1cc(Cl)c2cccnc2c1O (stereo not drawn),7.03 µM
9,CN1CCN(/N=C/c2ccc(N(c3ccccc3)c3ccccc3)cc2)CC1,0.354 µM
10,O=C(N/N=C/c1cc2c3c(c1O)CCCN3CCC2)c1ccccc1O,3.05 µM
11,COc1ccc2[nH]c(C(=O)N/N=C/c3ccc(O)cc3O)cc2c1,16 µM
12,O=C(Nc1nc(-c2ccccn2)cs1)c1ccc(Br)s1,1.29 µM
13,CC(C)OC(=O)c1ccc(NCc2cc(O)ccc2O)cc1Cl,5.06 µM
14,COc1ccccc1/C=C/C(=O)c1ccc(Cl)cc1,> 19.5 µM (inactive)
15,CC(=NNC(=S)N1CCCCCC1)c1ccccn1,0.354 µM
16,C#CCN(C[C@@H]1[C@@H](OC(=O)NCCCCCC)[C@@H](OC(=O)NCCCCCC)Cn2c(=O)ccc(=O)n21)S(=O)(=O)c1ccc(C)cc1,3.98 µM
17,CC(=NNc1nc2ccccc2o1)c1cc2ccccc2cn1,0.154 µM
18,CCCc1c(C(=O)N/N=C(\C)c2ccccn2)nnn1-c1nonc1N,1.57 µM
19,CCCCC(=O)NC(c1ccc(Cl)cc1)c1ccc2cccnc2c1O (stereo not drawn),3.65 µM
20,Cc1onc(-c2ccccc2)c1C(=O)NC(=S)NNC(=O)c1ccc(O)cc1O,> 19.5 µM (inactive)
21,C=CCNC(=S)N/N=C(\C)c1ccccn1,0.13 µM

row,Structure (SMILES),AC50
1,O=C(c1ccccc1)C(CCC(CN1CCOCC1)C(=O)c1ccccc1)CN1CCOCC1 (stereo not drawn),7.73 µM
2,COc1ccc(/C=C/c2nc3ccccc3n2C)cc1,3.28 µM
3,COc1ccc(C(=O)NC(=S)NNC(=O)c2ccc3ccccc3n2)cc1,3.69 µM
4,NC(=S)NN=Cc1nccc2c(N)cccc12,1.04 µM
5,O=C(Nc1ccc(C(=O)N2CCOCC2)cc1)Nc1cccc(C(F)(F)F)c1,> 19.5 µM (inactive)
6,CC1=C(C(=O)OCc2ccc3c(c2)OCO3)C(c2ccc(Cl)cc2)NC(=O)N1 (stereo not drawn),0.379 µM
7,Cc1ccc(/C=N/NC(=O)c2cc(-c3ccccc3)nc3ccccc23)o1,> 19.5 µM (inactive)
8,CCN(CC)c1ccc(/C=N/NC(=O)c2ccc3nc[nH]c3c2)c(O)c1,4.14 µM
9,COc1ccc(C=C2CS(=O)(=O)CC(=Cc3ccc(OC)cc3)C2=O)cc1,0.675 µM
10,Cc1ccc2[nH]c3c(N4CCN(Cc5ccccc5)CC4)ncnc3c2c1,10.6 µM
11,COc1ccc(N/N=C/c2c(C(=O)O)ccc3ccccc23)cc1,3.99 µM
12,COc1ccc(C(=O)NC2CCCc3c2cnn3-c2cccc(C)c2C)c(OC)n1 (stereo not drawn),1.22 µM
13,O=Cc1ccc(-c2cccs2)s1,11.8 µM
14,CCn1c2ccccc2c2cc(/C=N/n3cnnc3)ccc21,10.7 µM
15,CCOC(=O)c1c(C)[nH]c(C(=O)N/N=C\c2ccccc2O)c1C,6.7 µM
16,CC(=NNc1nc2ccccc2s1)c1ncccn1,10.2 µM
17,Oc1ccc(C=NNc2ccccn2)c(O)c1,16.2 µM
18,O=C1C(=C(c2ccccc2)N2CCOCC2)Cc2ccccc21,5.38 µM
19,COc1ccccc1N(C(C)=O)C1=C(Cl)C(=O)c2ccccc2C1=O,2.59 µM
20,CCCN(CCC)S(=O)(=O)c1ccc(C(=O)Nc2nnc(-c3cc(OC)cc(OC)c3)o2)cc1,> 19.5 µM (inactive)
